According to the supplement of paper PMC8967900:

Experiments:
Assay in all cases: selective drug sensitivity score (sDSS, relative to normal bone marrow) (sDSS (score)); higher = more potent and effective on the cell line relative to normal bone marrow cells
Settings in all cases: 72 h
JURKAT = system: JURKAT
380 = system: 380
TANOUE = system: TANOUE
PF-382 = system: PF-382
ALL-SIL = system: ALL-SIL
NALM-6 = system: NALM-6
RPMI-8402 = system: RPMI-8402
PEER = system: PEER
COG-LL-394h = system: COG-LL-394h
REH = system: REH
KARPAS-45 = system: KARPAS-45
P30-OHKUBO = system: P30-OHKUBO
P12-ICHIKAWA = system: P12-ICHIKAWA
MHH-CALL-3 = system: MHH-CALL-3
NALL-1 = system: NALL-1
CCRF-CEM = system: CCRF-CEM
MN-60 = system: MN-60
DND-41 = system: DND-41
MOLT-14 = system: MOLT-14
COG-LL-319h = system: COG-LL-319h
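Further: ALL cell lines in 384-well plates, five doses spanning 10,000-fold, each plate scaled between vehicle and 100 µmol/L benzalkonium chloride controls, sDSS an adapted area-under-curve metric.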

Compound	selective drug sensitivity score (JURKAT)	selective drug sensitivity score 380	selective drug sensitivity score (TANOUE)	selective drug sensitivity score (PF-382)	selective drug sensitivity score (ALL-SIL)	selective drug sensitivity score (NALM-6)	selective drug sensitivity score (RPMI-8402)	selective drug sensitivity score (PEER)	selective drug sensitivity score (COG-LL-394h)	selective drug sensitivity score (REH)	selective drug sensitivity score (KARPAS-45)	selective drug sensitivity score (P30-OHKUBO)	selective drug sensitivity score (P12-ICHIKAWA)	selective drug sensitivity score (MHH-CALL-3)	selective drug sensitivity score (NALL-1)	selective drug sensitivity score (CCRF-CEM)	selective drug sensitivity score (MN-60)	selective drug sensitivity score (DND-41)	selective drug sensitivity score (MOLT-14)	selective drug sensitivity score (COG-LL-319h)
C/C(=C\c1csc(C)n1)[C@@H]1C[C@@H]2O[C@]2(C)CCC[C@H](C)[C@H](O)[C@@H](C)C(=O)C(C)(C)[C@@H](O)CC(=O)N1 [Ixabepilone] (top concentration 1000 nM)	3.28	2.08	-1.92	1.68	2.98	4.48	2.78	3.28	2.18	3.78	3.68	3.78	2.58	-0.42	1.68	3.08	1.48	1.28	4.58	3.68
Nc1cc(COc2c(Cl)cc(C[C@H](N)C(=O)O)cc2Cl)c2oc(-c3ccccc3)nc2c1 [JPH203] (top concentration 5000 nM)	0	1.2	0	0	0	0	0.5	0	0	0.2	0	2.2	0	0	0	0	0	0	0	0
CS(=O)(=O)CCNCc1ccc(-c2ccc3ncnc(Nc4ccc(OCc5cccc(F)c5)c(Cl)c4)c3c2)o1 [Lapatinib] (top concentration 1000 nM)	0	0	0	0	0	0	0	0	0	0	0	0.3	0	0	0	0	0	0	0	0
Oc1ccc2c(c1)CC[C@H](c1ccccc1)[C@@H]2c1ccc(OCCN2CCCC2)cc1 [Lasofoxifene] (top concentration 1000 nM)	-1.28	-1.28	-1.08	-0.98	-1.28	-1.28	-1.28	-1.28	-1.28	-1.28	-1.28	-1.28	-1.28	-1.28	-1.28	-1.08	-1.28	-1.28	-1.28	2.62
Cc1ccc(F)c(NC(=O)Nc2ccc(-c3cccc4[nH]nc(N)c34)cc2)c1 [Linifanib] (top concentration 1000 nM)	-1.12	-1.12	-1.12	-1.12	-1.12	-1.12	-1.12	-1.12	-1.12	-1.12	-1.12	-1.12	-1.12	-1.12	-1.12	-1.02	-1.12	-0.02	-1.12	-1.12
Cc1c(F)cc(C(=O)NC2CC2)cc1-c1ccc(C(=O)NCC(C)(C)C)cn1 [Losmapimod] (top concentration 10000 nM)	-0.18	-0.18	1.32	0.02	-0.18	0.82	-0.18	-0.08	-0.18	-0.18	-0.18	7.82	-0.18	-0.18	-0.18	-0.18	-0.18	-0.18	-0.18	-0.18
CNC(=O)c1cccc2cc(Oc3ccnc4cc(OCC5(N)CC5)c(OC)cc34)ccc12 [Lucitanib] (top concentration 10000 nM)	2.78	1.18	0.28	1.38	4.88	1.58	1.88	3.08	1.58	6.88	3.18	5.88	1.28	-0.62	0.58	3.08	-0.62	5.08	2.28	1.98
O=C1c2c(O)ccc(O)c2C(=O)c2c(NCCNCCO)ccc(NCCNCCO)c21 [Mitoxantrone] (top concentration 1000 nM)	-3.86	16.3	-12.9	-1.86	7.44	2.44	6.34	-6.26	13.2	12.6	-1.66	7.84	8.84	14.4	-5.06	10.8	-3.86	2.84	11.6	16.3
CC1(C)CNc2cc(NC(=O)c3cccnc3NCc3ccncc3)ccc21 [Motesanib] (top concentration 10000 nM)	-0.22	-0.22	1.58	-0.22	-0.22	1.28	-0.22	0.38	0.78	-0.22	-0.22	-0.22	-0.22	-0.22	-0.22	-0.22	-0.22	-0.22	-0.22	0.08
CCCN(CCC)C(=O)C1=Cc2ccc(-c3ccc(C(=O)N4CCCC4)cc3)cc2N=C(N)C1 [Motolimod] (top concentration 10000 nM)	-2.58	-4.38	-4.48	-2.28	-3.48	-3.38	-2.28	-3.18	0.42	-2.48	-3.48	-1.58	-3.18	-4.48	-4.48	-3.38	-4.48	-4.08	-4.28	-4.18
Cc1cc(-c2ncc(CC(=O)Nc3ccc(-c4cnccn4)cn3)cc2C)ccn1 [NVP-LGK974] (top concentration 10000 nM)	7.3	1	5.7	2.7	0	3.7	4.9	6.9	6.2	4	4.6	2.1	3.2	2	1.5	-0.5	4.7	1.3	1	-1.3
CC1(C)NC(=O)N(c2ccc([N+](=O)[O-])c(C(F)(F)F)c2)C1=O [Nilutamide] (top concentration 10000 nM)	1.32	-0.48	-0.48	-0.08	0.82	1.82	-0.18	0.32	-0.48	0.22	-0.48	-0.18	-0.48	-0.48	7.02	-0.48	-0.48	-0.38	-0.48	-0.48
CNC(=O)c1ccc2cc([C@@]3(O)CCn4cncc43)ccc2c1 [Orteronel] (top concentration 10000 nM)	0	1.4	0	0	0	0	0	0	0	0	0	0	0	0	0	0	0	0	0	4.9
C=CCc1cccc(/C=N/NC(=O)CN2CCN(Cc3ccccc3)CC2)c1O [PAC-1] (top concentration 10000 nM)	1.28	0.38	2.08	2.78	3.18	2.18	1.78	2.58	1.08	3.48	3.28	1.18	1.68	-0.22	-0.42	5.18	4.08	4.78	8.28	1.18
O=C(Nc1cccnc1)N1CCC(Cc2cccc(Oc3ccc(C(F)(F)F)cn3)c2)CC1 [PF-3845] (top concentration 10000 nM)	6.36	-1.34	3.66	1.96	-0.84	2.86	4.66	7.06	3.96	2.96	3.96	0.46	3.26	-1.34	-1.24	-0.44	3.06	-0.24	2.26	-0.04
COc1cc(Br)c(Nc2nc(-c3c(C)nc4ncccn34)cs2)c(Br)c1 [PTC-209] (top concentration 10000 nM)	0.62	-1.48	-2.58	-0.68	0.42	2.22	1.02	-0.38	-2.58	3.62	0.02	4.52	0.42	-5.08	-1.78	0.52	0.42	-1.18	-0.88	4.12
C=CC(=O)N1CCC(Oc2cc3c(Nc4ccc(Cl)c(Cl)c4F)ncnc3cc2OC)CC1 [Poziotinib] (top concentration 1000 nM)	-0.22	-0.22	-0.22	-0.22	3.48	-0.22	-0.22	-0.22	-0.22	-0.22	-0.22	-0.22	-0.22	3.08	3.28	-0.22	-0.22	2.08	0.78	3.98
CC[C@H](C)C(=O)O[C@H]1C[C@H](O)C=C2C=C[C@H](C)[C@H](CC[C@@H](O)C[C@@H](O)CC(=O)O)[C@H]21 [Pravastatin] (top concentration 10000 nM)	-0.66	3.04	-0.66	-0.66	-0.66	-0.66	-0.66	-0.66	-0.66	-0.66	-0.66	-0.66	-0.66	0.74	-0.66	-0.46	-0.66	-0.66	-0.16	0.64
